# Legend:
# Format in all cases: binding
# AZG2 [1] = target: T1, AZG2 (Arabidopsis thaliana, UniProt Q84MA8); assay: ITC
# T1 sequence (Q84MA8 1-530): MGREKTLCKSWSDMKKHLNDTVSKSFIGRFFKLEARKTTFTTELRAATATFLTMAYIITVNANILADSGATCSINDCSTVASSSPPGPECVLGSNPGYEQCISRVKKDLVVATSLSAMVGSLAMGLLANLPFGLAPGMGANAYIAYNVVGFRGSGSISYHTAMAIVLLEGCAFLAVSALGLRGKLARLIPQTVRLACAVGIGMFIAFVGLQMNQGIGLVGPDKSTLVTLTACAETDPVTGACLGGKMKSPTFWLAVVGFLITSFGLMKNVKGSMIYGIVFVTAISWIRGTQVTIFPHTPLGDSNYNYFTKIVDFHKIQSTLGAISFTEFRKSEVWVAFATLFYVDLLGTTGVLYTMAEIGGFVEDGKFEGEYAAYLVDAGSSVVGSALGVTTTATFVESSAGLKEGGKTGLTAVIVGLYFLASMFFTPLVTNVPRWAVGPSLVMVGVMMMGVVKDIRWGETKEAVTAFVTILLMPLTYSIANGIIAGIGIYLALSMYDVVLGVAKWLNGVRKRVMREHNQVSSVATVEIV
# AZG1 = AZG1 (Arabidopsis thaliana, UniProt Q9SRK7); assay: ITC at pH […]
# AZG2 [2] = target: T1, AZG2; assay: ITC at pH […]
Structure (SMILES),Kd (AZG2 [1]),Kd (AZG1),Kd (AZG2 [2])
c1coc(CNc2ncnc3[nH]cnc23)c1 [kinetin],710 ± 90 nM,,
"CC(C)=CCNc1ncnc2nc[nH]c12 [iP, N^6-(Δ^2-isopentenyl)adenine]",710 ± 80 nM,,
"c1ccc(CNc2ncnc3nc[nH]c23)cc1 [BA, benzyladenine]",2090 ± 470 nM,,
Nc1ncnc2nc[nH]c12 [adenine],,620 ± 110 nM,770 ± 90 nM

# Source: article PMC11992111 (Nature Communications, 2025)
